Assay results from PMC10923054, “Antiplasmodial peptaibols act through membrane directed mechanisms” (Cell Chemical Biology, 2024).
Like-named read-outs stand apart in the source and are kept apart here. Square brackets hold non-standard residues; d marks the D form. Peptide text beside a SMILES is read from it. Leu(ol) = CC(C)C[C@H](N)CO; dIva = CC[C@@](C)(N)C(=O)O; Aib = CC(C)(N)C(=O)O

How the values were obtained:
Attb = assay type: cell-based, P. falciparum; conditions: Asexual Blood Stage DHODH; mean ± SEM of 3 biological replicates
Procedure: (§1) Parasites grown in the Winzeler laboratory for screening and drug selections were maintained in RPMI 1640 medium supplemented with 0.25% Albumax I, 26 mM sodium bicarbonate, 0.1 mM hypoxanthine, and […] gentamicin. Human O+ whole blood obtained from the Blood Bank of The Scripps Research Institute was used for cultivation (human subjects IRB number: 125933). Blood-stage cultures were kept at 37°C with 5% CO2, 3% O2, and 92% N2. Monitoring of parasitemia and parasite morphology was performed using microscopic evaluation of thin blood smears that were first fixed with methanol, and then stained with Giemsa.
(§2) Cross resistance screening was performed with 0.3% parasitemia, 2.5% hematocrit, dispensed into 1536-well black, clear bottom plates with pre-spotted compound using a MultiFloTM Microplate dispenser (BioTek) at a volume of 8 μL/well. Plates where then incubated at 37°C for 72 h, after which 10× SYBR Green I (Invitrogen) in a lysis buffer (20 mM Tris/HCl, 5 mM EDTA, 0.16% (w/v) saponin, 1.6% (v/v) […]) was then added using a MultiFloTM Microplate dispenser (BioTek) at a volume of 2 μL/well. After 24 h incubation at room temperature, viability was measured via fluorescence using the EnVision® Multilabel Reader (PerkinElmer) (485 nm excitation, 530 nm emission). IC50 values were determined in CDD vault (https://www.collaborativedrug.com/).

attb ScDHODH = assay type: cell-based, P. falciparum; conditions: Asexual Blood Stage DHODH; line expressing S. cerevisiae DHODH; mean ± SEM of 3 biological replicates
Procedure: as §1, §2

[1] = test system: PbLuc (P. berghei ANKA GFP-Luc-SMcon sporozoites in HepG2-A16-CD81 cells); assay type: cell-based; conditions: 48 h after sporozoite addition, luciferase; mean ± SEM of 3 biological replicates; read-out: PbLuc EC50 (P. berghei liver stage)
Procedure: (§3) The liver stage was performed as discussed in.[61] Liver-stage inhibitory activity was evaluated in HepG2-A16-CD81 cells and using P. berghei sporozoites (P. berghei ANKA GFP-Luc-SMcon) freshly obtained by dissecting salivary glands of infected A. stephensi mosquitoes. Cells were first seeded in 1536-well plates (Greiner Bio) containing 50 nL of test and control compounds dissolved in DMSO and incubated for 24 h. Sporozoites were then added to each well at a density of 1 × 10^3 cells per well and kept at 37°C for 48 h. Afterwards, luciferin reagent (Promega BrightGlo) was added to each well, and luciferase activity was detected using a Perkin Elmer Envision plate. As a counter screen, HepG2-A16-CD81 cells were seeded as above and exposed to drug in the absence of sporozoites. Viability was evaluated by adding Promega CellTiterGlo® followed by luminescence measurement using a Perkin Elmer Envision plate reader. IC50 values were determined using CDD vault (https://www.collaborativedrug.com/).

HepG2-A16-CD81 cells = assay type: cell-based, H. sapiens; conditions: HepG2-A16-CD81 without sporozoites, CellTiterGlo; up to 50 μM; read-out: HepG2 EC50 (liver stage counter screen)
Procedure: as §3

Dd2-B2 = assay type: cell-based, P. falciparum
Procedure: Screening of HZ NPDG-I resistant clones was performed at 1% parasitemia, 0.2% hematocrit with flow cytometry in V-shaped 96-well plates. Briefly, compounds were subjected to a 3-fold serial dilution with the highest concentration set at 4 μM or 8 μM. Eleven dilution points were included in addition to no-drug controls. Three technical replicates were set up for each compound at each dilution point. The Dd2-B2 parent line, or the clonal line 1B2, 2B3, 3A3, or 1E2 were added at 0.4% hematocrit and 1% parasitemia to the diluted compounds at a 1:1 ratio. The plate was incubated at 37°C for 72 h in a chamber filled with a hypoxic gas mixture (3% oxygen, 5% carbon dioxide, and 92% nitrogen). After incubation, a blood pellet was formed at the bottom of each well of the 96-well plate. Supernatant was removed without disturbing the pellet, and 20 μl of SYTO 61(1:10,000 dilution; Thermo Fisher Scientific, Cat No. S11343) in PBS was added to each well and incubated for 15 mins at room temperature. The cells in each well were then diluted with 180 μl of PBS and subjected to flow cytometry for parasitemia determination using the HTS (High-Throughput Sampler) of BD FACSCanto II (BD Biosciences, NJ). Flow cytometry data was analyzed using FlowJo Version 10.4.0. Dose response curves were generated and IC50 values obtained with GraphPad Prism Version 9.1.1.
A clone of the Dd2 strain (Dd2-B2) of P. falciparum was used for in vitro evolution of resistance against harzianin NPDG I. Three flasks of 1.2 x 10^8 parasites were continuously exposed to a stepwise-increasing concentration of the compound over ∼3 months starting from 20 nM up to a final concentration of 100 nM. Once a stable rightward shift in 72 h IC50 was observed, cultures were subjected to limiting dilution to obtained harzianin-resistant clones. Each clone was expanded, phenotyped to confirm resistance, and submitted for whole genome sequencing. An untreated flask of Dd2-B2 parasites was maintained in parallel throughout the course of in vitro selection as a control.

Compound `CC[C@H](C)[C@H](NC(=O)[C@H](CC(C)C)NC(=O)[C@H](CCC(N)=O)NC(=O)[C@@](C)(CC)NC(C)=O)C(=O)NC(C)(C)C(=O)N1CCC[C@H]1C(=O)N[C@](C)(CC)C(=O)N[C@@H](CC(C)C)C(=O)NC(C)(C)C(=O)N1CCC[C@H]1C(=O)N[C@H](CO)CC(C)C` [HZ NPDG-I, harzianin NPDG I] (Ac-[dIva]QLI[Aib]P[dIva]L[Aib]P[Leu(ol)]) has an EC50 (Attb) of 5.7 ± 2.3 nM, an EC50 (attb ScDHODH) of 9.1 ± 1.5 nM and an EC50 [1] of 2700 nM. The EC50 (HepG2-A16-CD81 cells) was > 50 µM, the IC50 (Dd2-B2; flask 1, read-out: IC50, Dd2-B2 parent) was 0.0536 nM and the IC50 (Dd2-B2; flask 2, read-out: IC50, Dd2-B2 parent) was 0.0222 nM. It also gave an IC50 (Dd2-B2; flask 3, read-out: IC50, DD2-B2 parent) of 0.0437 nM.
